Reference: patent US8349883B2, “Hydroxamate-based inhibitors of deacetylases B” (Novartis AG, priority 2008, dated 2013)

Columns and labels:
HDAC-1 = target: T1, HDAC-1 (Homo sapiens, UniProt Q13547); test: HDAC inhibition assay (purified GST-HDAC protein); format: biochemical
T1 construct: made in house; host or cells: Sf9 or Sf21 insect cells (baculovirus, donor vector pFB-GSTX3)

HCT116 = HCT116 IC50; format: cell-based; settings: Homo sapiens, HCT-116

T1 sequence (Q13547 whole entry, species assumed): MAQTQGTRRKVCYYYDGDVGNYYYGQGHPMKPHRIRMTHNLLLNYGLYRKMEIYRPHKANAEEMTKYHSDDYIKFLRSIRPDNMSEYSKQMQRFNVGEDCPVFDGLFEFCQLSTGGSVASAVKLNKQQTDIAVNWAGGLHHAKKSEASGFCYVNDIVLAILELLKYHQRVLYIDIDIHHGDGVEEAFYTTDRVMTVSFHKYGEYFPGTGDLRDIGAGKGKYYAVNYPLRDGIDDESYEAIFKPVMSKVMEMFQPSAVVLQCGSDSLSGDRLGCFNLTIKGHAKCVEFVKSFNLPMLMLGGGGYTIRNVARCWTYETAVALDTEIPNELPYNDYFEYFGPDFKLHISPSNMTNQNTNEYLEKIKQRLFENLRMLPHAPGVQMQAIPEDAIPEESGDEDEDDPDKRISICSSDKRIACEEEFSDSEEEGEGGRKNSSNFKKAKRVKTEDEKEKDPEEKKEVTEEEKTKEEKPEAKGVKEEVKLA

O=C(/C=C/c1ccc([C@@H]2CCCN2CCc2cnn3ccccc23)c(F)c1)NO [Compound 91, (E)-3-{3-Fluoro-4-[(S)-1-(2-pyrazolo[1,5-a]pyridin-3-yl-ethyl)-pyrrolidin-2-yl]-phenyl}-N-hydroxy-acrylamide]
IC50 (HDAC-1): 4 nM | IC50 (HCT116): 2 nM

O=C(/C=C/c1ccc(C2CCCN2CCc2ccccc2)cc1)NO (stereo not shown) [Compound 19, (E)-N-Hydroxy-3-[4-(1-phenethyl-pyrrolidin-2-yl)-phenyl]-acrylamide]
IC50 (HDAC-1): 3 nM | IC50 (HCT116): 7 nM

Cc1nn(CC2CC2)c(C)c1CCN1CCC[C@H]1c1ccc(/C=C/C(=O)NO)cc1 [Compound 62, (E)-3-(4-{(S)-1-[2-(1-Cyclopropylmethyl-3,5-dimethyl-1H-pyrazol-4-yl)-ethyl]-pyrrolidin-2-yl}-phenyl)-N-hydroxy-acrylamide]
IC50 (HDAC-1): 2 nM | IC50 (HCT116): 2 nM

Cc1nn(CCN2CCC[C@H]2c2ccc(/C=C/C(=O)NO)cc2)cc1Br [Compound 70, (E)-3-(4-{(S)-1-[2-(4-Bromo-3-methyl-pyrazol-1-yl)-ethyl]-pyrrolidin-2-yl}-phenyl)-N-hydroxy-acrylamide]
IC50 (HDAC-1): 30 nM | IC50 (HCT116): 96 nM

O=C(/C=C/c1ccc(C2CCCN2CCc2c(-c3ccccc3)[nH]c3ccccc23)cc1)NO (stereo not shown) [Compound 7, (E)-N-Hydroxy-3-(4-{1-[2-(2-phenyl-1H-indol-3-yl)-ethyl]-pyrrolidin-2-yl}-phenyl)-acrylamide]
IC50 (HDAC-1): 12 nM | IC50 (HCT116): 3 nM

O=C(/C=C/c1cc(F)c([C@@H]2CCCN2CCc2cnn3ccccc23)c(F)c1)NO [Compound 94, (E)-3-{3,5-Difluoro-4-[(S)-1-(2-pyrazolo[1,5-a]pyridin-3-yl-ethyl)-pyrrolidin-2-yl]-phenyl}-N-hydroxy-acrylamide]
IC50 (HDAC-1): 1.4 nM | IC50 (HCT116): 5 nM

Cc1nn(C)c(C)c1CCN1CCC[C@H]1c1ccc(/C=C/C(=O)NO)cc1 [Compound 60, (E)-N-Hydroxy-3-(4-{(S)-1-[2-(1,3,5-trimethyl-1H-pyrazol-4-yl)-ethyl]-pyrrolidin-2-yl}-phenyl)-acrylamide]
IC50 (HDAC-1): 1.8 nM | IC50 (HCT116): 4 nM

CCc1nn2ccccc2c1CCN1CCC[C@H]1c1ccc(/C=C/C(=O)NO)cc1 [Compound 47, (E)-3-(4-{(S)-1-[2-(2-Ethyl-pyrazolo[1,5-a]pyridin-3-yl)-ethyl]-pyrrolidin-2-yl}-phenyl)-N-hydroxy-acrylamide]
IC50 (HDAC-1): 1 nM | IC50 (HCT116): 0.35 nM

O=C(/C=C/c1ccc([C@@H]2CCCN2CCS(=O)(=O)c2ccccc2)cc1)NO [Compound 98, (E)-3-{4-[(S)-1-(2-Benzenesulfonyl-ethyl)-pyrrolidin-2-yl]-phenyl}-N-hydroxy-acrylamide]
IC50 (HDAC-1): 36 nM | IC50 (HCT116): 50 nM

Cc1[nH]c2ccccc2c1CCN1CCN(C)CC1c1ccc(/C=C/C(=O)NO)cc1 (stereo not shown) [Compound 88, (E)-N-Hydroxy-3-(4-{4-methyl-1-[2-(2-methyl-1H-indol-3-yl)-ethyl]-piperazin-2-yl}-phenyl)-acrylamide]
IC50 (HDAC-1): 9 nM | IC50 (HCT116): 24 nM

Cc1nn(C)c(C)c1CCN1CCC[C@@H]1c1ccc(/C=C/C(=O)NO)cc1 [Compound 110, (E)-N-Hydroxy-3-(4-{(R)-1-[2-(1,3,5-trimethyl-1H-pyrazol-4-yl)-ethyl]-pyrrolidin-2-yl}-phenyl)-acrylamide]
IC50 (HDAC-1): 100 nM | IC50 (HCT116): 180 nM

COc1ccc2[nH]c(C)c(CCN3CCCC3c3ccc(/C=C/C(=O)NO)cc3)c2c1 (stereo not shown) [Compound 6, (E)-N-Hydroxy-3-(4-{1-[2-(5-methoxy-2-methyl-1H-indol-3-yl)-ethyl]-pyrrolidin-2-yl}-phenyl)-acrylamide]
IC50 (HDAC-1): 2 nM | IC50 (HCT116): 1.2 nM

Cc1[nH]c2ccccc2c1CCN1CCCC1c1ccc(/C=C/C(=O)NO)cc1 (stereo not shown) [Compound 1, (E)-N-Hydroxy-3-(4-{1-[2-(2-methyl-1H-indol-3-yl)-ethyl]-pyrrolidin-2-yl}-phenyl)-acrylamide]
IC50 (HDAC-1): 3 nM | IC50 (HCT116): 1 nM

CC(C)(C)c1[nH]c2ncccc2c1CCN1CCC[C@H]1c1ccc(/C=C/C(=O)NO)cc1 [Compound 52, (E)-3-(4-{(S)-1-[2-(2-tert-Butyl-1H-pyrrolo[2,3-b]pyridin-3-yl)-ethyl]-pyrrolidin-2-yl}-phenyl)-N-hydroxy-acrylamide]
IC50 (HDAC-1): 2.7 nM | IC50 (HCT116): 4.3 nM

Cn1cc(CCN2CCC[C@H]2c2ccc(/C=C/C(=O)NO)cc2)cn1 [Compound 59, (E)-N-Hydroxy-3-(4-{(S)-1-[2-(1-methyl-1H-pyrazol-4-yl)-ethyl]-pyrrolidin-2-yl}-phenyl)-acrylamide]
IC50 (HDAC-1): 8 nM | IC50 (HCT116): 35 nM

Cc1nn(CCN2CCC[C@H]2c2ccc(/C=C/C(=O)NO)cc2)c(C)c1C [Compound 67, (E)-N-Hydroxy-3-(4-{1-[2-(3,4,5-trimethyl-pyrazol-1-yl)-ethyl]-pyrrolidin-2-yl}-phenyl)-acrylamide]
IC50 (HDAC-1): 17 nM | IC50 (HCT116): 39 nM

O=C(/C=C/c1ccc([C@@H]2CCCN2CCn2ccc(C(F)(F)F)n2)cc1)NO [Compound 73, (E)-N-Hydroxy-3-(4-{(S)-1-[2-(3-trifluoromethyl-pyrazol-1-yl)-ethyl]-pyrrolidin-2-yl}-phenyl)-acrylamide]
IC50 (HDAC-1): 71 nM | IC50 (HCT116): 230 nM

O=C(/C=C/c1ccc([C@@H]2CCCN2CCc2c(C(F)(F)F)nn3ccccc23)cc1)NO [Compound 46, (E)-N-Hydroxy-3-(4-{(S)-1-[2-(2-trifluoromethyl-pyrazolo[1,5-a]pyridin-3-yl)-ethyl]-pyrrolidin-2-yl}-phenyl)-acrylamide]
IC50 (HDAC-1): 3 nM | IC50 (HCT116): 0.6 nM

O=C(/C=C/c1ccc(C2CCCN2CCc2cnc3ccccn23)cc1)NO (stereo not shown) [Compound 53, (E)-N-Hydroxy-3-{4-[1-(2-imidazo[1,2-a]pyridin-3-yl-ethyl)-pyrrolidin-2-yl]-phenyl}-acrylamide]
IC50 (HDAC-1): 0.9 nM | IC50 (HCT116): 1 nM

O=C(/C=C/c1ccc([C@@H]2CCCN2CCc2ccsc2)cc1)NO [Compound 35, (E)-N-Hydroxy-3-{4-[(S)-1-(2-thiophen-3-yl-ethyl)-pyrrolidin-2-yl]-phenyl}-acrylamide]
IC50 (HDAC-1): 5 nM | IC50 (HCT116): 9 nM

Cc1noc(-c2ccccc2)c1CCN1CCC[C@H]1c1ccc(/C=C/C(=O)NO)cc1 [Compound 56, (E)-N-Hydroxy-3-(4-{(S)-1-[2-(3-methyl-5-phenyl-isoxazol-4-yl)-ethyl]-pyrrolidin-2-yl}-phenyl)-acrylamide]
IC50 (HDAC-1): 1.7 nM | IC50 (HCT116): 5 nM

Cc1nn2ccccc2c1CCN1CCC[C@@H]1c1ccc(/C=C/C(=O)NO)cc1 [Compound 45, (E)-N-Hydroxy-3-(4-{(R)-1-[2-(2-methyl-pyrazolo[1,5-a]pyridin-3-yl)-ethyl]-pyrrolidin-2-yl}-phenyl)-acrylamide]
IC50 (HDAC-1): 2.4 nM | IC50 (HCT116): 8 nM

O=C(/C=C/c1ccc(C2CCCN2CCCc2c[nH]c3ccccc23)cc1)NO (stereo not shown) [Compound 2, (E)-N-Hydroxy-3-(4-{1-[3-(1H-indol-3-yl)-propyl]-pyrrolidin-2-yl}-phenyl)-acrylamide]
IC50 (HDAC-1): 10 nM | IC50 (HCT116): 50 nM

CC(C)n1nnc(CCN2CCC[C@H]2c2ccc(/C=C/C(=O)NO)cc2)n1 [Compound 101, (E)-N-Hydroxy-3-(4-{(S)-1-[2-(2-isopropyl-2H-tetrazol-5-yl)-ethyl]-pyrrolidin-2-yl}-phenyl)-acrylamide]
IC50 (HDAC-1): 58 nM | IC50 (HCT116): 160 nM

Cc1ccc(C(O)CN2CCCC2c2ccc(/C=C/C(=O)NO)cc2)cc1 (stereo not shown) [Compound 29, (E)-N-Hydroxy-3-{4-[1-(2-hydroxy-2-p-tolyl-ethyl)-pyrrolidin-2-yl]-phenyl}-acrylamide]
IC50 (HDAC-1): 8 nM | IC50 (HCT116): 40 nM

O=C(/C=C/c1ccc([C@@H]2CCCN2CCc2cnn3ccccc23)cc1)NO [Compound 43, (E)-N-Hydroxy-3-{4-[(S)-1-(2-pyrazolo[1,5-a]pyridin-3-yl-ethyl)-pyrrolidin-2-yl]-phenyl}-acrylamide]
IC50 (HDAC-1): 1 nM | IC50 (HCT116): 1.1 nM
